Molecular target: EP2 subtype of the human PGE2 receptor (hEP2 receptor) (Homo sapiens, UniProt P43116)
Experiment: cAMP antagonism test, human prostaglandin E2 (subtype EP2) receptor signal
Type: cell-based
Source text: 1. Detection of Antagonism to the Human Prostaglandin E2 (Subtype EP2) Receptor Signal
The binding of PGE2 to the EP2 subtype of the human PGE2 receptor induces the activation of membrane-located adenylate cyclases and leads to the formation of cAMP. In the presence of the phosphodiesterase inhibitor IBMX, the cAMP accumulated owing to this stimulation and released by cell lysis is used in a competitive detection method. In this test, the cAMP present in the lysate competes with a fluorescence-labelled cAMP (cAMP-d2) for binding to an Eu cryptate-labelled anti-cAMP antibody.
In the absence of cellular cAMP, a maximal signal is produced, which is attributable to the binding of this cAMP-d2 molecule to the antibody. After excitation of the […] at 337 nm, there is a fluorescence resonance energy transfer (FRET) to the Eu cryptate molecules of the anti-cAMP antibody (labelled therewith), followed by a long-lasting emission signal at 665 nm (and at […]). Both signals are measured in a suitable measurement instrument with a time delay, i.e. after decay of the background fluorescence. Any increase in the low FRET signal caused by prostaglandin E2 administration (measured as well ratio change=emission665nm/emission620nm*10000) indicates the action of antagonists.
1.2.1. Test for Antagonism (Data Per Well of a 384-Well Plate):
To a test plate with the substance solutions already added (0.05 μl; 100% DMSO, concentration range from 0.8 nM-16.5 nM) were added 4 μl of a cAMP-d2/cell suspension (625000 cells/ml). After a 20-minute preincubation at room temperature (RT), 2 μl of a 3×PGE2 solution (1.5 nM, in PBS-IBMX) were added and incubated in the presence of the agonist for a further 60 mins at RT (volume: […]). Next the reaction was stopped by addition of 2 μl of lysis buffer and incubated for a further 20 mins at RT before the actual measurement (volume: ˜8 μl).

EP2 subtype of the human PGE2 receptor (hEP2 receptor), sequence (P43116 whole entry): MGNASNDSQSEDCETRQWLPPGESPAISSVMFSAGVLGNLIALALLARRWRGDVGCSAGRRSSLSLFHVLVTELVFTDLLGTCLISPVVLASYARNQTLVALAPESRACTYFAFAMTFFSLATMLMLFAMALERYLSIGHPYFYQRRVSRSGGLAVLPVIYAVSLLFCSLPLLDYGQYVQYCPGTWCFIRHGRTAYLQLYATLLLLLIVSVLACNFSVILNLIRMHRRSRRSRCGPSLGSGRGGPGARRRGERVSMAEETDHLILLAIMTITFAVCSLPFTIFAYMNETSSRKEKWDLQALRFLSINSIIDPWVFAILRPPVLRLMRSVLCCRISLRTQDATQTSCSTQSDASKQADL

Structure (SMILES)	IC50 [µM]
COCCNC(=O)c1ccc2nn(CC3CCN(C(=O)c4ccc(-c5ccccc5OC(F)(F)F)cc4F)CC3)cc2c1C [Example E44, 2-[(1-{[3-fluoro-2′-(trifluoromethoxy)biphenyl-4-yl]carbonyl}piperidin-4-yl)methyl]-N-(2-methoxyethyl)-4-methyl-2H-indazole-5-carboxamide]	> 0.05
COCCNC(=O)c1ccc2nn(CC3CCN(C(=O)c4ccc(-c5ccccc5F)cc4)CC3)cc2c1C [Example E45, 2-({1-[(2′-fluorobiphenyl-4-yl)carbonyl]piperidin-4-yl}methyl)-N-(2-methoxyethyl)-4-methyl-2H-indazole-5-carboxamide]	> 0.05
COCCNC(=O)c1ccc2nn(CC3CCN(C(=O)c4ccc(-c5ccc(F)cc5F)cc4)CC3)cc2c1C [Example E46, 2-({1-[(2′,4′-difluorobiphenyl-4-yl)carbonyl]piperidin-4-yl}methyl)-N-(2-methoxy-ethyl)-4-methyl-2H-indazole-5-carboxamide]	> 0.05
COCCNC(=O)c1ccc2nn(CC3CCN(C(=O)c4ccc(-c5ccccc5)c(F)c4)CC3)cc2c1C [Example E47, 2-({1-[(2-fluorobiphenyl-4-yl)carbonyl]piperidin-4-yl}methyl)-N-(2-methoxyethyl)-4-methyl-2H-indazole-5-carboxamide]	> 0.05
COCCNC(=O)c1ccc2nn(CC3CCN(C(=O)c4ccc(-c5ccccc5C)cc4)CC3)cc2c1C [Example E48, N-(2-methoxyethyl)-4-methyl-2-({1-[(2′-methylbiphenyl-4-yl)carbonyl]piperidin-4-yl}-methyl)-2H-indazole-5-carboxamide]	> 0.05
COCCNC(=O)c1ccc2nn(CC3CCN(C(=O)c4ccc(N5CCOCC5)cc4F)CC3)cc2c1C [Example E51, 2-({1-[2-fluoro-4-[morpholin-4-yl)benzoyl]piperidin-4-yl}methyl)-N-(2-methoxyethyl)-4-methyl-2H-indazole-5-carboxamide]	> 0.05
COCCNC(=O)c1ccc2nn(CC3CCN(C(=O)c4ccc(Br)cc4)CC3)cc2c1C [Example E52, 2-{[1-(4-bromobenzoyl)piperidin-4-yl]methyl}-N-(2-methoxyethyl)-4-methyl-2H-indazole-5-carboxamide]	> 0.05
COCCNC(=O)c1ccc2nn(CC3CCN(C(=O)c4ccc(OC(F)(F)F)cc4)CC3)cc2c1C [Example E53, N-(2-methoxyethyl)-4-methyl-2-({1-[4-(trifluoromethoxy)benzoyl]piperidin-4-yl}-methyl)-2H-indazole-5-carboxamide]	> 0.05
COCCNC(=O)c1ccc2nn(CC3CCN(C(=O)c4ccc(Cl)cc4)CC3)cc2c1C [Example E54, 2-{[1-(4-chlorobenzoyl)piperidin-4-yl]methyl}-N-(2-methoxyethyl)-4-methyl-2H-indazole-5-carboxamide]	> 0.05
COCCNC(=O)c1ccc2nn(CC3CCN(C(=O)c4ccc(SC(F)(F)F)cc4)CC3)cc2c1C [Example E55, N-(2-methoxyethyl)-4-methyl-2-[(1-{4-[(trifluoromethyl)sulphanyl]benzoyl}piperidin-4-yl)methyl]-2H-indazole-5-carboxamide]	> 0.05
Cc1c(C(=O)NCCOCC2CC2)ccc2nn(CC3CCN(C(=O)c4ccc(Cl)cc4)CC3)cc12 [Example E59, 2-{[1-(4-chlorobenzoyl)piperidin-4-yl]methyl}-N-[2-(cyclopropylmethoxy)ethyl]-4-methyl-2H-indazole-5-carboxamide]	> 0.05
Cc1ccc(C(=O)N2CCC(Cn3cc4c(C)c(C(=O)NCCOCC5CC5)ccc4n3)CC2)cc1 [Example E60, N-[2-(cyclopropylmethoxy)ethyl]-4-methyl-2-{[1-(4-methylbenzoyl)piperidin-4-yl]-methyl}-2H-indazole-5-carboxamide]	> 0.05
Cc1c(C(=O)NCCOCC2CC2)ccc2nn(CC3CCN(C(=O)c4ccc(Oc5ccc(F)cc5)cc4)CC3)cc12 [Example E61, N-[2-(cyclopropylmethoxy)ethyl]-2-({1-[4-(4-fluorophenoxy)benzoyl]piperidin-4-yl}-methyl)-4-methyl-2H-indazole-5-carboxamide]	> 0.05
Cc1c(C(=O)NCCOCC2CC2)ccc2nn(CC3CCN(C(=O)c4ccc(C(F)(F)F)cc4)CC3)cc12 [Example E62, N-[2-(cyclopropylmethoxy)ethyl]-4-methyl-2-({1-[4-(trifluoromethyl)benzoyl]piperidin-4-yl}methyl)-2H-indazole-5-carboxamide]	> 0.05
Cc1c(C(=O)NCCOCC2CC2)ccc2nn(CC3CCN(C(=O)c4ccc(-c5ccc(F)cc5)cc4)CC3)cc12 [Example E63, N-[2-(cyclopropylmethoxy)ethyl]-2-({1-[(4′-fluorobiphenyl-4-yl)carbonyl]piperidin-4-yl}methyl)-4-methyl-2H-indazole-5-carboxamide]	> 0.05
Cc1c(C(=O)NCCOCC2CC2)ccc2nn(CC3CCN(C(=O)c4ccc(C5CC5)cc4)CC3)cc12 [Example E64, 2-{[1-(4-cyclopropylbenzoyl)piperidin-4-yl]methyl}-N-[2-(cyclopropylmethoxy)ethyl]-4-methyl-2H-indazole-5-carboxamide]	> 0.05
Cc1c(C(=O)NCCOCC(F)(F)F)ccc2nn(CC3CCN(C(=O)c4ccc(Cl)cc4)CC3)cc12 [Example E65, 2-{[1-(4-chlorobenzoyl)piperidin-4-yl]methyl}-4-methyl-N-[2-(2,2,2-trifluoroethoxy)-ethyl]-2H-indazole-5-carboxamide]	> 0.05
Cc1ccc(C(=O)N2CCC(Cn3cc4c(C)c(C(=O)NCCOCC(F)(F)F)ccc4n3)CC2)cc1 [Example E66, 4-methyl-2-{[1-(4-methylbenzoyl)piperidin-4-yl]methyl}-N-[2-(2,2,2-trifluoroethoxy)-ethyl]-2H-indazole-5-carboxamide]	> 0.05
Cc1c(C(=O)NCCOCC(F)(F)F)ccc2nn(CC3CCN(C(=O)c4ccc(Oc5ccc(F)cc5)cc4)CC3)cc12 [Example E67]	> 0.05
Cc1c(C(=O)NCCOCC(F)(F)F)ccc2nn(CC3CCN(C(=O)c4ccc(C(F)(F)F)cc4)CC3)cc12 [Example E68, 4-methyl-N-[2-(2,2,2-trifluoroethoxy)ethyl]-2-({1-[4-(trifluoromethyl)benzoyl]-piperidin-4-yl}methyl)-2H-indazole-5-carboxamide]	> 0.05
Cc1c(C(=O)NCCOCC(F)(F)F)ccc2nn(CC3CCN(C(=O)c4ccc(-c5ccc(F)cc5)cc4)CC3)cc12 [Example E69, 2-({1-[(4′-fluorobiphenyl-4-yl)carbonyl]piperidin-4-yl}methyl)-4-methyl-N-[2-(2,2,2-trifluoroethoxy)ethyl]-2H-indazole-5-carboxamide]	> 0.05
Cc1c(C(=O)NCCOCC(F)(F)F)ccc2nn(CC3CCN(C(=O)c4ccc(C5CC5)cc4)CC3)cc12 [Example E70, 2-{[1-(4-cyclopropylbenzoyl)piperidin-4-yl]methyl}-4-methyl-N-[2-(2,2,2-trifluoro-ethoxy)ethyl]-2H-indazole-5-carboxamide]	> 0.05
Cc1c(C(=O)NCCOC(C)C)ccc2nn(CC3CCN(C(=O)c4ccc(Cl)cc4)CC3)cc12 [Example E71, 2-{[1-(4-chlorobenzoyl)piperidin-4-yl]methyl}-N-(2-isopropoxyethyl)-4-methyl-2H-indazole-5-carboxamide]	> 0.05
Cc1ccc(C(=O)N2CCC(Cn3cc4c(C)c(C(=O)NCCOC(C)C)ccc4n3)CC2)cc1 [Example E72, N-(2-isopropoxyethyl)-4-methyl-2-{[1-(4-methylbenzoyl)piperidin-4-yl]methyl}-2H-indazole-5-carboxamide]	> 0.05
Cc1c(C(=O)NCCOC(C)C)ccc2nn(CC3CCN(C(=O)c4ccc(Oc5ccc(F)cc5)cc4)CC3)cc12 [Example E73, 2-({1-[4-(4-fluorophenoxy)benzoyl]piperidin-4-yl}methyl)-N-(2-isopropoxyethyl)-4-methyl-2H-indazole-5-carboxamide]	> 0.05
Cc1c(C(=O)NCCOC(C)C)ccc2nn(CC3CCN(C(=O)c4ccc(C(F)(F)F)cc4)CC3)cc12 [Example E74, N-(2-isopropoxyethyl)-4-methyl-2-({1-[4-(trifluoromethyl)benzoyl]piperidin-4-yl}-methyl)-2H-indazole-5-carboxamide]	> 0.05
Cc1c(C(=O)NCCOC(C)C)ccc2nn(CC3CCN(C(=O)c4ccc(-c5ccc(F)cc5)cc4)CC3)cc12 [Example E75, 2-({1-[(4′-fluorobiphenyl-4-yl)carbonyl]piperidin-4-yl}methyl)-N-(2-isopropoxyethyl)-4-methyl-2H-indazole-5-carboxamide]	> 0.05
Cc1c(C(=O)NCCOC(C)C)ccc2nn(CC3CCN(C(=O)c4ccc(C5CC5)cc4)CC3)cc12 [Example E76, 2-{[1-(4-cyclopropylbenzoyl)piperidin-4-yl]methyl}-N-(2-isopropoxyethyl)-4-methyl-2H-indazole-5-carboxamide]	> 0.05

Source: US9655887B2, “Pharmaceutical composition and the use thereof, and application regime of said pharmaceutical composition for on-demand contraception” (BAYER PHARMA AKTIENGESELLSCHAFT, priority 2013, dated 2017)
